# Biological target: T1, human NOX4 (Homo sapiens, UniProt Q9NPH5)
# T1 construct: The full-length human NOX4 (NM_016931.3) transcript was cloned; expressed in transfected cells
# T1 sequence (Q9NPH5 1-578): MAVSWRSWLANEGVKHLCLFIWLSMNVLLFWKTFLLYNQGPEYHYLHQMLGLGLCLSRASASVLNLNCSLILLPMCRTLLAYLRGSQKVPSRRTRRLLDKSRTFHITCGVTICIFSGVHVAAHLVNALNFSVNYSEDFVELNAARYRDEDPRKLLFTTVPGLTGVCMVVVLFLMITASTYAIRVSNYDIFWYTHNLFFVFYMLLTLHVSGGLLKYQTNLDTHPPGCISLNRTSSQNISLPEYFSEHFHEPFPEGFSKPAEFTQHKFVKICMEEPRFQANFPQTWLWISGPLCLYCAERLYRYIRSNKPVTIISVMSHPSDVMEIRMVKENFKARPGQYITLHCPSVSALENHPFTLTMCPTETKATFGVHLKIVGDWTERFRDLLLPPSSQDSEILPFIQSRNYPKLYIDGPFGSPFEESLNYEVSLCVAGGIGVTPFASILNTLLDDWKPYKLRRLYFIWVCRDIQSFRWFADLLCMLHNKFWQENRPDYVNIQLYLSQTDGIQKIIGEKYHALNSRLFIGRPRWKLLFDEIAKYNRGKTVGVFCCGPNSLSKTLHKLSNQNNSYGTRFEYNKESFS
# T1 sequence (P13498 1-195 partner): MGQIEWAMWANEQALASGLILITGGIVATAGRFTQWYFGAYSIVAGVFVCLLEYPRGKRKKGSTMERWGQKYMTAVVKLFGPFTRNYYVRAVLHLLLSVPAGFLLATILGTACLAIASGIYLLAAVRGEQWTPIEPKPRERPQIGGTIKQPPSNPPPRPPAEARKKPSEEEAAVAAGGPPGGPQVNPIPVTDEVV
# Test: Amplex Red activity assay (cellular H2O2 formation in hNOX4 T-REx-293 cells)
# Assay type: cell-based
# Details: tet-induced 24 h, extracellular H2O2 by Amplex Red, 60 min 25° C., geometric mean if determined several times
# Experimental: The nucleotide sequence and the amino acid sequence for the human NOX4 (Entrez Gene ID 50507) is known in the art and are published. The potency and efficacy of the compounds of Formula (I) are assessed for their potential to inhibit the formation of ROS in a cellular assay.
# The full-length human NOX4 (NM_016931.3) transcript was cloned into the pDONR™221 vector (Life Technologies™) in order to generate, by site-specific integration according to the recommendation of the manufacturer (Life Technologies™), a recombinant pJTI™ R4 DEST CMV-TO vector containing the NOX4 coding information controlled by tetracycline (tet) responsive tet-on cytomegalovirus promoter (hNOX4 pDEST).
# Modified human embryonic kidney cells overexpressing a tet receptor (Jump-In™ T-REx™ HEK293; Life Technologies™) were transfected with the NOX4-containing tet-on vector (hNOX4 pDEST) to generate a stable recombinant cell pool (hNOX4 T-REx-293). hNOX4 T-REx-293 cells were cultured in DMEM containing 4.5 g/L glucose supplemented with 10% fetal calf serum, penicillin (100 U/mL), streptomycin (100 μg/mL), geneticin (1 mg/mL), and blasticidin (5 μg/mL) at 37° C. in air with 5% CO2. Human Nox4 expression was induced with tet (1 μg/mL) for 24 h and extracellular H2O2 was quantified using the Amplex Red reagent (Life Technologies™).
# Compounds were prepared as 10 mM stock solution in DMSO vehicle, then diluted in 384-well plates using DMSO followed by a transfer of the dilutions into the assay plate. As a control, diphenylene iodonium was included at a final concentration of 10 μM. Compounds were tested at 10 concentrations in the range from 50 μM highest to 100 nM lowest.
# Cellular H2O2 formation was measured using the Amplex Red reagent. […] Cells were seeded into 384-well clear bottom plates at a density of 20 000 cells per well in presence or absence of compounds. […] All wells contained 1.25% of DMSO. The plates were kept at 25° C. for 60 min. The amount of produced resorufin was detected with the Synergy™ Mx microplate reader (BioTek) with excitation and emission wavelengths set to 550 nm and 600 nm, respectively. Fluorescence was measured for each well and the fluorescence at 600 nm wavelength was compared to the fluorescence of the vehicle in place of compound. Inhibitory activities of example compounds were determined by calculating the IC50 value (the concentration of compound needed to inhibit 50% of the enzyme activity). The calculated IC50 values may fluctuate depending on the daily cellular assay performance. Fluctuations of this kind are known to those skilled in the art.
row,IC50 [nM],SMILES
1,2750,"COC1CCN(c2nc3cc(C(=O)Nc4ccc5c(c4)CCO5)ccc3s2)CC1 [Example 200, 2-(4-Methoxy-piperidin-1-yl)-benzothiazole-5-carboxylic acid (2,3-dihydro-benzofuran-5-yl)-amide]"
2,361,"O=C(Nc1ccc2sc(N3CCC34COC4)nc2c1)c1ccc2c(c1)CCO2 [Example 90, 2,3-Dihydro-benzofuran-5-carboxylic acid [2-(6-oxa-1-aza-spiro[3.3]hept-1-yl)-benzothiazol-5-yl]-amide]"
3,990,"CCNc1nc2cc(NC(=O)c3ccc4c(c3)CCO4)ccc2o1 [Example 119, 2,3-Dihydro-benzofuran-5-carboxylic acid (2-ethylamino-benzooxazol-5-yl)-amide]"
4,2560,"O=C(Nc1ccc2c(c1)CCO2)c1ccc2sc(N3CCCCC3)nc2c1 [Example 196, 2-Piperidin-1-yl-benzothiazole-5-carboxylic acid (2,3-dihydro-benzofuran-5-yl)-amide]"
5,3390,"CN1CCOc2ccc(C(=O)Nc3ccc4oc(N5CCC56CCOCC6)nc4c3)cc21 [Example 182, 4-Methyl-3,4-dihydro-2H-benzo[1,4]oxazine-6-carboxylic acid [2-(7-oxa-1-aza-spiro[3.5]non-1-yl)-benzooxazol-5-yl]-amide]"
6,1140,"O=C(Nc1ccc2oc(N3CCC34CCOCC4)nc2c1)c1ccc2c(c1)OCCO2 [Example 163, 2,3-Dihydro-benzo[1,4]dioxine-6-carboxylic acid [2-(7-oxa-1-aza-spiro[3.5]non-1-yl)-benzooxazol-5-yl]-amide]"
7,3580,"CN1CCOc2ccc(C(=O)Nc3ccc4oc(N5CCC6(CC5)COC6)nc4c3)cc21 [Example 190, 4-Methyl-3,4-dihydro-2H-benzo[1,4]oxazine-6-carboxylic acid [2-(2-oxa-7-aza-spiro[3.5]non-7-yl)-benzooxazol-5-yl]-amide]"
8,1470,"O=C(Nc1ccc2oc(N3CC4(CCCOC4)C3)nc2c1)c1ccc2c(c1)CCO2 [Example 23, 2,3-Dihydro-benzofuran-5-carboxylic acid [2-(6-oxa-2-aza-spiro[3.5]non-2-yl)-benzooxazol-5-yl]-amide]"
9,9530,"O=C(Nc1ccc2oc(N3CC(F)(F)C3)nc2c1)c1ccc2c(c1)OCO2 [Example 121, Benzo[1,3]dioxole-5-carboxylic acid [2-(3,3-difluoro-azetidin-1-yl)-benzooxazol-5-yl]-amide]"
10,3540,"CN1CCN(c2nc3cc(NC(=O)c4ccc5c(c4)CCO5)ccc3s2)CC1 [Example 83, 2,3-Dihydro-benzofuran-5-carboxylic acid [2-(4-methyl-piperazin-1-yl)-benzothiazol-5-yl]-amide]"
11,731,"COC1CCCN(c2nc3cc(NC(=O)c4ccc5c(c4)CCO5)ccc3o2)C1 (centres unmarked) [Example 59, 2,3-Dihydro-benzofuran-5-carboxylic acid [2-(3-methoxy-piperidin-1-yl)-benzooxazol-5-yl]-amide]"
12,585,"O=C(Nc1ccc2c(c1)CCO2)c1ccc2oc(N3CCCC3)nc2c1 [Example 79, 2-Pyrrolidin-1-yl-benzooxazole-5-carboxylic acid (2,3-dihydro-benzofuran-5-yl)-amide]"
13,2970,"O=C(Nc1ccc2oc(N(C3CC3)C3COC3)nc2c1)c1ccc2c(c1)OCCO2 [Example 176, 2,3-Dihydro-benzo[1,4]dioxine-6-carboxylic acid [2-(cyclopropyl-oxetan-3-yl-amino)-benzooxazol-5-yl]-amide]"
14,389,"O=C(Nc1ccc2oc(N3CCCC(F)(F)C3)nc2c1)c1ccc2c(c1)CCO2 [Example 16, 2,3-Dihydro-benzofuran-5-carboxylic acid [2-(3,3-difluoro-pipeiidin-1-yl)-benzooxazol-5-yl]-amide]"
15,2520,"O=C(Nc1ccc2oc(N3CC(O)C3)nc2c1)c1ccc2c(c1)CCCO2 [Example 140, Chroman-6-carboxylic acid [2-(3-hydroxy-azetidin-1-yl)-benzooxazol-5-yl]-amide]"
16,639,"O=C(Nc1ccc2oc(N3CCCCC3)nc2c1)c1ccc2c(c1)CCO2 [Example 2, 2,3-Dihydro-benzofuran-5-carboxylic acid (2-piperidin-1-yl-benzooxazol-5-yl)-amide]"
17,2370,"O=C(Nc1ccc2sc(N3CCCC4(COC4)C3)nc2c1)c1ccc2c(c1)CCO2 [Example 101, 2,3-Dihydro-benzofuran-5-carboxylic acid [2-(2-oxa-6-aza-spiro[3.5]non-6-yl)-benzothiazol-5-yl]-amide]"
18,3210,"CN(c1nc2cc(NC(=O)c3ccc4c(c3)CCO4)ccc2s1)C1COC1 [Example 103, 2,3-Dihydro-benzofuran-5-carboxylic acid [2-(methyl-oxetan-3-yl-amino)-benzothiazol-5-yl]-amide]"
19,5240,"CN(C)CC1CCCN1c1nc2cc(NC(=O)c3ccc4c(c3)CCO4)ccc2o1 (centres unmarked) [Example 61, 2,3-Dihydro-benzofuran-5-carboxylic acid [2-(2-dimethylaminomethyl-pyrrolidin-1-yl)-benzooxazol-5-yl]-amide]"
20,2520,"CN1CCOc2ccc(C(=O)Nc3ccc4oc(N5CCS(=O)(=O)CC5)nc4c3)cc21 [Example 41, 4-Methyl-3,4-dihydro-2H-benzo[1,4]oxazine-6-carboxylic acid [2-(1,1-dioxo-thiomorpholin-4-yl)-benzooxazol-5-yl]-amide]"
21,359,"O=C(Nc1ccc2oc(N(C3CC3)C3COC3)nc2c1)c1ccc2c(c1)CCO2 [Example 63, 2,3-Dihydro-benzofuran-5-carboxylic acid [2-(cyclopropyl-oxetan-3-yl-amino)-benzooxazol-5-yl]-amide]"
22,3760,"CN(C)CC1CCCN1c1nc2cc(NC(=O)c3ccc4c(c3)CCO4)ccc2s1 (centres unmarked) [Example 117, 2,3-Dihydro-benzofuran-5-carboxylic acid [2-(2-dimethylaminomethyl-pyrrolidin-1-yl)-benzothiazol-5-yl]-amide]"
23,1390,"CN1CCN(c2nc3cc(NC(=O)c4ccc5c(c4)OCCO5)ccc3o2)CC1 [Example 174, 2,3-Dihydro-benzo[1,4]dioxine-6-carboxylic acid [2-(4-methyl-piperazin-1-yl)-benzooxazol-5-yl]-amide]"
24,524,"O=C(Nc1ccc2oc(N3CC4(CCS4(=O)=O)C3)nc2c1)c1ccc2c(c1)CCO2 [Example 72, 2,3-Dihydro-benzofuran-5-carboxylic acid [2(1,1-dioxo-1l6-thia-6-aza-spiro[3.3]hept-6-yl)-benzooxazol-5-yl]-amide]"
25,9390,"CC(C)OC1CN(c2nc3cc(NC(=O)c4ccc5c(c4)CCO5)ccc3s2)C1 [Example 106, 2,3-Dihydro-benzofuran-5-carboxylic acid [2-(3-isopropoxy-azetidin-1-yl)-benzothiazol-5-yl]-amide]"
26,899,"CN(CC1(F)COC1)c1nc2cc(NC(=O)c3ccc4c(c3)CCO4)ccc2o1 [Example 52, 2,3-Dihydro-benzofuran-5-carboxylic acid {2-[(3-fluoro-oxetan-3-ylmethyl)-methyl-amino]-benzooxazol-5-yl}-amide]"
